Columns and labels:
[1] = Foam test of DOSS solutions with added foam control agent (based on ASTM D 1173-53); assay type: physicochemical; conditions: 0.1 wt % foam control agent added to 0.1 wt % DOSS in water; for Initial foam height: ambient temperature
From the text: Dioctyl sodium sulfosuccinate (DOSS) is a commonly used surfactant in waterborne compositions. DOSS is capable of forming stable foams when dissolved in water. The foam control characteristics of various foam control agents may be assessed by measuring the foam generated by a 0.1 wt % aqueous solution of DOSS and comparing this to the foam generated after the addition of foam control agent to a 0.1 wt % DOSS solution. The DOSS utilized in these measurements was an Aerosol OT 75% surfactant obtained from Cytec Industries. The foaming and foam stability of DOSS were measured using a procedure based upon ASTM D 1173-53 at ambient temperature, typically 23° C.
In these tests, an aqueous solution of DOSS or the filtrate from the DOSS/foam control agent mixture is added from an elevated foam pipette to a foam receiver containing the same solution. The foam height is measured at the completion of the addition (“Initial Foam Height”) and the time required for the foam to dissipate at the air-liquid interface (“Time to 0 Foam”) is recorded. This test provides a comparison between the foaming characteristics of various aqueous compositions. The results for the foam control agents prepared in Examples 1-28 are reported in Table 1 along with comparative data for a 0.1 wt % solution of DOSS with no added foam control agent (Example 29).

[2] = Dynamic surface tension of aqueous solutions, maximum bubble pressure method; assay type: physicochemical; conditions: for γ at 0.1 wt %, 0.1 b/s / γ at 0.1 wt %, 1 b/s / γ at 0.1 wt %, 6 b/s / γ at 0.1 wt %, 20 b/s: 0.1 wt % in distilled water; for γ limiting, 0.1 b/s / γ limiting, 1 b/s / γ limiting, 6 b/s / γ limiting, 20 b/s: saturated solution made using 1.0 wt % in water
From the text: Dynamic surface tension data were obtained for the soluble portion of these samples using the maximum bubble pressure method at bubble rates from 0.1 bubbles/sec (b/s) to 20 b/s.
The relative efficiency of surface tension reduction can be obtained by comparing surface tension reduction of solutions containing the same amount of different surfactants. Such data are given for 0.1 wt % solutions of the foam control agents at 0.1, 1, 6 and 20 bubbles/second (b/s). The limiting surface tensions at 0.1, 1, 6 and 20 b/s represent the lowest surface tensions in water which can be achieved at the given surface creation rates for a given surfactant regardless of the amount of surfactant used and is used to evaluate the effectiveness of a surfactant. In most cases the limiting surface tension was taken at 1.0 wt % since the foam control agent was insoluble at this concentration. In the case where the foam control agent was soluble at 1.0 wt %, the limiting surface tension was taken at 5.0 wt % (where the samples were insoluble). These values give information about the relative ability to a surfactant to reduce surface defects under near-equilibrium conditions (0.1 b/s) through very dynamic conditions (20 b/s).

Structure (SMILES)	Foam height after 1 min [1] [cm]	Foam height after 10 min [1] [cm]	Initial foam height [1] [cm]	γ at 0.1 wt %, 0.1 b/s [2] [dyne/cm]	γ at 0.1 wt %, 1 b/s [2] [dyne/cm]	γ at 0.1 wt %, 6 b/s [2] [dyne/cm]	γ at 0.1 wt %, 20 b/s [2] [dyne/cm]	γ limiting, 0.1 b/s [2] [dyne/cm]	γ limiting, 1 b/s [2] [dyne/cm]	γ limiting, 6 b/s [2] [dyne/cm]	γ limiting, 20 b/s [2] [dyne/cm]
CC(C)COCC(O)CN(CCN(CC(O)COCC(C)C)CC(O)COCC(C)C)CC(O)COCC(C)C (stereo not drawn) [EDA/4 IBGE]	1.5	1.2	2.0	37.6	41.7	51.4	65.5	34.8	36.7	40.3	49.4
CC(C)COCC(O)CNCCN(CC(O)COCC(C)C)CC(O)COCC(C)C (stereo not drawn) [EDA/3 IBGE]	0.8	0.7	0.9	38.9	42.5	44.1	50.3	33.3	34.3	35.0	35.6
CCCCC(CC)COCC(O)CNCCN (mixture of isomers) [EDA/1 EHGE]	0.2	0	1.5	28.6	37.3	54.7	63.3	27.4	28.3	30.6	32.5
CCCCOCC(O)CN(CC(O)COCCCC)C1CCC(CC2CCC(N(CC(O)COCCCC)CC(O)COCCCC)CC2)CC1 (stereo not drawn) [PACM/4 BGE]	2.1	1.8	2.7	70.6	71.8	72.0	72.4	58.5	68.5	70.5	71.0
CCCCOCC(O)CNCCCOCCOCCOCCCN(CC(O)COCCCC)CC(O)COCCCC (stereo not drawn) [DAPDEG/3 BGE]	0.9	0.1	1.9	38.0	39.4	42.1	47.6	33.5	38.7	34.3	36.1
CCCCOCC(O)CNC1CCC(CC2CCC(N(CC(O)COCCCC)CC(O)COCCCC)CC2)CC1 (stereo not drawn) [PACM/3 BGE]	2.8	1.5	2.5	50.2	59.2	69.1	71.8	47.9	54.0	63.5	65.8
